From article PMC5650372 (Oncotarget, 2017)
Where two headings read alike, the source gives them in different places.

Legend:
DNA-PK = DNA-PK (Homo sapiens, UniProt P78527); assay: DNA-PK enzyme assay; assay type: biochemical; conditions: average ± SEM; CC214-1 n=2
Description: (§1) mTOR, DNA-PK and PI3K-alpha assays were to determine percent inhibition. An IC50 value was then
(§2) performed as reported previously. estimated. […]

ATR [1] = target: T1, ATR (Homo sapiens, UniProt Q13535); assay: ATR 33P radioactive kinase assay (immunoprecipitated FLAG-ATR); assay type: biochemical
T1 construct: made in house; host or cells: HEK293 (293FT cells, Invitrogen R700-07), transient transfection, immunoprecipitation on Protein G Sepharose
T1 sequence (Q13535 whole entry): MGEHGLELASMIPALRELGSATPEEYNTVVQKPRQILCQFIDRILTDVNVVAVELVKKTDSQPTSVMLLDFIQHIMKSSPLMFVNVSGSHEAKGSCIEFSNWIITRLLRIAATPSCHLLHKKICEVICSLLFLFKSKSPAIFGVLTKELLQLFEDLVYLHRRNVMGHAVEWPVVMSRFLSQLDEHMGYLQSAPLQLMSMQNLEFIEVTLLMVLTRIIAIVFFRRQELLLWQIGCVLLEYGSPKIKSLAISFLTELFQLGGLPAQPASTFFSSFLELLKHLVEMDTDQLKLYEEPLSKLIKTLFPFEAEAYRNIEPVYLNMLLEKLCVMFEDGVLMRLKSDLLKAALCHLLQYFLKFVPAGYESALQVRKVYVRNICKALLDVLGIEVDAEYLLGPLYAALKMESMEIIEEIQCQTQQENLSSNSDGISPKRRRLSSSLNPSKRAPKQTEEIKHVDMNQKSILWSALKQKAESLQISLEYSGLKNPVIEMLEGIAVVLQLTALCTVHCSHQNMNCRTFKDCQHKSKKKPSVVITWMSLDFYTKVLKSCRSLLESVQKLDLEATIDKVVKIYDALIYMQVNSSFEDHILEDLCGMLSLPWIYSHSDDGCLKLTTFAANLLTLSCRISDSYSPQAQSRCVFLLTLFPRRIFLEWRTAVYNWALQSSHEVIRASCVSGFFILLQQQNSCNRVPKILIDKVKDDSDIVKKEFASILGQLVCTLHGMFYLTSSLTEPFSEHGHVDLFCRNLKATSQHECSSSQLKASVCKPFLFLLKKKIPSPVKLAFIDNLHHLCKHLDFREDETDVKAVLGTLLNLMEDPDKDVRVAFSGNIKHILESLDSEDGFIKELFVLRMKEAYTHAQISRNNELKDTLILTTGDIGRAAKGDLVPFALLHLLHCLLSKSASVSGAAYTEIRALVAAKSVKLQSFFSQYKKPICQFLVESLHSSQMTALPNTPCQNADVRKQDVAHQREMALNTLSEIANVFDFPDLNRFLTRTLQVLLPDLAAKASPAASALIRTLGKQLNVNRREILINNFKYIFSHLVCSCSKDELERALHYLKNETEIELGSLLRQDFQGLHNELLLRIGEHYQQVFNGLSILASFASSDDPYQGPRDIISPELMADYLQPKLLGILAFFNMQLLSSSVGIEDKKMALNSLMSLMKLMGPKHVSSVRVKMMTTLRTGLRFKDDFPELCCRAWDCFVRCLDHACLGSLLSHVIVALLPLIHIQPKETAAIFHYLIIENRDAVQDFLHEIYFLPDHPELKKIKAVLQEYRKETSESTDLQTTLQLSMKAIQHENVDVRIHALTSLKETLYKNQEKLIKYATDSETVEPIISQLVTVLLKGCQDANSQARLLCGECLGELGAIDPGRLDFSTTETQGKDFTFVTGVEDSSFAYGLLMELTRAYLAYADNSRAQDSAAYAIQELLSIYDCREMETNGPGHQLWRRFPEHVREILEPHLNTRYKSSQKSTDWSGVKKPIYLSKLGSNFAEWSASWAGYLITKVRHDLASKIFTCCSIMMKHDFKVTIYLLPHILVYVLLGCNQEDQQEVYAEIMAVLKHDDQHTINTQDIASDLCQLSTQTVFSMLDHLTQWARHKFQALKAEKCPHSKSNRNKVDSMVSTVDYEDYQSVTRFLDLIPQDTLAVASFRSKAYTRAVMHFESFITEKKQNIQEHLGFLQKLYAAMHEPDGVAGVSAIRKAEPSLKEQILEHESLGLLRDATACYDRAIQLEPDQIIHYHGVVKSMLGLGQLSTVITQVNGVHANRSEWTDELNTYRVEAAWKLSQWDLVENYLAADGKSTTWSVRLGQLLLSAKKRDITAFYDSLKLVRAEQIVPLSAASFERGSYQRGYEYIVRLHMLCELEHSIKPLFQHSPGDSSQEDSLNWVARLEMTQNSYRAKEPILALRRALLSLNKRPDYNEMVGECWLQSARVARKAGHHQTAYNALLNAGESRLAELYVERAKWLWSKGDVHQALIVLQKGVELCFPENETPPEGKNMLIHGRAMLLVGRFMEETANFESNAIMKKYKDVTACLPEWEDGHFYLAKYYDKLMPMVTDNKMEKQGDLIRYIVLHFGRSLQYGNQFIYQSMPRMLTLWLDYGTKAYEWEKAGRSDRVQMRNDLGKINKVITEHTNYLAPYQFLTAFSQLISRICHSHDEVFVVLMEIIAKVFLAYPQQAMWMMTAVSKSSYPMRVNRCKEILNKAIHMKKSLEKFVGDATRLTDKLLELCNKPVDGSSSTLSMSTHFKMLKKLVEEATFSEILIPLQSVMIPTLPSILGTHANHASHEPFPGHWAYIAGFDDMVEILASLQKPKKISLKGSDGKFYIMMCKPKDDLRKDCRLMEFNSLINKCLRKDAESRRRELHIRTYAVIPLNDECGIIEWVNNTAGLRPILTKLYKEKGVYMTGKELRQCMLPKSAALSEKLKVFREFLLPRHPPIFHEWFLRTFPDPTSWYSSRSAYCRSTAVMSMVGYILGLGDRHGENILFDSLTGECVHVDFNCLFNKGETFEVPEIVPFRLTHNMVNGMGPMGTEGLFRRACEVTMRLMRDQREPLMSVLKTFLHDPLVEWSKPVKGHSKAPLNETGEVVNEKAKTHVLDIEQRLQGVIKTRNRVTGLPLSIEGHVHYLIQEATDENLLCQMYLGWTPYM
Description: deficient cell growth in vitro […]
incorporated in the corresponding no inhibitor control mTOR, DNA-PK and PI3K-alpha assays were to determine percent inhibition. An IC50 value was then performed as reported previously. estimated.
(§3) ATM and ATR assay and IC50 determination Cellular NHEJ assay
(§4) HA-ATM and FLAG-ATR (HA-labeled ATM, and The experimental design is illustrated in FLAG-labeled ATR) were each transiently expressed in Supplementary Figure 4. Cal-51 breast cancer cells HEK293 cells (293FT cells, Invitrogen Cat: R700-07) were separately transfected with pEGFP plasmid (6085-using Lipofectamine as transfection reagent. Cells were 1, Clontech, Mountain View, CA) digested with either harvested 6 days post transfection and spun down to EcoRI (to measure NHEJ) or StuI (to measure transfection separate cells from media. Cells were then lysed using a efficiency) using a Amaxa cell line nuclearfector kit V lysis buffer (50 mM Tris buffer, (Tris(hydroxylmethyl)- (CCA-1003, Lonza). Immediately after the transfection, aminomethane, pH 7.5), 100 mM NaCl, 50 mM βGOP, the cells were treated with DMSO or compounds at 10% Glycerol, 0.5% Tween 20, 1 mM EDTA, 25 mM indicated concentrations for 24 hours and GFP-positive sodium fluoride (NaF), 20 nM microcystine, 2 mM cells were counted under a fluorescent microscope. […]

NHEJ activity = assay: Reconstituted cell-free NHEJ assay (MCF7 nuclear extract); assay type: biochemical, human
Description: MCF7 human breast cancer cells (5-10 x 10^7 each) were incubated in 5 pellet volumes of cold hypotonic buffer (10 mM Hepes-KOH, pH 7.5, 1.5 mM MgCl2, 5 mM KCl, and 0.5 mM DTT) for 20 minutes and were homogenized in a tight-fitting glass dounce homogenizer for 10-20 strokes. The nuclei were then collected by low-speed centrifugation and nuclear proteins were extracted by high-salt buffer (50 mM Tris-HCl, pH 7.5, 1 M KCl, 2 mM EDTA, 1 mM DTT, and protease inhibitors). The extracted nuclear proteins were dialyzed against 1 L of dialysis buffer (20 mM Tris-HCl, pH 8.0, 20% glycerol, 0.1 M KOAc, 0.5 mM EDTA, and 1 mM DTT) for 1 hour and were used for the in vitro NHEJ assay.
(§5) Nuclear protein (10-20 μg) prepared above was pre-treated with compounds as indicated on ice for 15 minutes. Twenty-five nanograms of EcoRI-digested pBluescript DNA (Stratagene, La Jolla, CA) were then added and the mixture was adjusted to 20 μL final volume in NHEJ buffer (50 mM Hepes-KOH pH 8.0, 40 mM KOAc, 1 mM Mg(OAc)2, 1 mM ATP, 0.1 mg/mL BSA, and 1 mM DTT). After incubation at 25°C for 60 minutes, the reaction was terminated by incubation with 1 μg/mL RNase A for 10 minutes followed by treatment with 2 mg/mL Protease K in 0.5% SDS at 55°C for 30 minutes. The reactions were run onto 0.8% agarose and the gel was stained with Sybr Green (S756, Invitrogen, Carlsbad, CA). For Western blots, an aliquot of the same reaction mixture described above was subjected to SDS-PAGE, transferred to the PVDF membrane, and immunoblotted with indicated antibodies.

NHEJ in Cal-51 cells = assay: 384-well image-based cellular NHEJ assay; assay type: cell-based; conditions: Homo sapiens; Cal-51, n=3
From the text: as §3
as §4, with “microscope. NHEJ phenylmethylsulfonylfluoride (PMSF) and protease activity was calculated by the number of GFP-positive inhibitor cocktail) followed by sonication 3 times and a cells in cells transfected with pEGFP-EcoRI divided by final spin at 20,000 rpm for 30 minutes to generate a clear that in cells transfected with pEGFP-StuI, multiplied by lysate. To perform the immunoprecipitation, enzymes were 100.” for “microscope.”
(§6) or FLAG tags. Beads plus enzymes were then washed 3 developed. Different cell lines were transfected using times with lysis buffer and spun down at 1000 rpm for the procedure described above and subsequently seeded 1 minute. Beads plus enzymes were resuspended in lysis into 384-well plates at optimized density for individual buffer and kept at 4°C until assay. Assays for ATM and cell lines. Cells were then treated with compounds at ATR were conducted in a 33P radioactive assay format. increasing concentrations. GFP+ cells were imaged Assay buffer contained the following reagents: 1 mg/mL and quantitated using the IncuCyte (Essen Bioscience, GST-p53 (glutathione S-transferase–p53 fusion protein) Ann Arbor, MI). NHEJ activity was then normalized substrate (expressed in-house), 20 μg/mL calf thymus to the DMSO control and fitted to the Sigmoidal Dose-DNA activator (Sigma), 100 μg/mL BSA, 200 μM EGTA Response Model (IDBS XLFit Model 205; London, UK)

[2] = tested on: NHEJ in HCT116 colorectal cancer cells; assay: 384-well image-based cellular NHEJ assay; assay type: cell-based; conditions: Homo sapiens, HCT-116; HCT116, n=3
From the text: as §3
as §4, with “microscope. NHEJ phenylmethylsulfonylfluoride (PMSF) and protease activity was calculated by the number of GFP-positive inhibitor cocktail) followed by sonication 3 times and a cells in cells transfected with pEGFP-EcoRI divided by final spin at 20,000 rpm for 30 minutes to generate a clear that in cells transfected with pEGFP-StuI, multiplied by lysate. To perform the immunoprecipitation, enzymes were 100.” for “microscope.”
as §6

[3] = tested on: NHEJ in MDA-MB-231 breast cancer cells; assay: 384-well image-based cellular NHEJ assay; assay type: cell-based; conditions: Homo sapiens; MDA-MB-231, n=3
From the text: as §3
as §4, with “microscope. NHEJ phenylmethylsulfonylfluoride (PMSF) and protease activity was calculated by the number of GFP-positive inhibitor cocktail) followed by sonication 3 times and a cells in cells transfected with pEGFP-EcoRI divided by final spin at 20,000 rpm for 30 minutes to generate a clear that in cells transfected with pEGFP-StuI, multiplied by lysate. To perform the immunoprecipitation, enzymes were 100.” for “microscope.”
as §6

[4] = tested on: NHEJ in PC3 prostate cancer cells; assay: 384-well image-based cellular NHEJ assay; assay type: cell-based; conditions: Homo sapiens; PC3, n=3
From the text: as §3
as §4, with “microscope. NHEJ phenylmethylsulfonylfluoride (PMSF) and protease activity was calculated by the number of GFP-positive inhibitor cocktail) followed by sonication 3 times and a cells in cells transfected with pEGFP-EcoRI divided by final spin at 20,000 rpm for 30 minutes to generate a clear that in cells transfected with pEGFP-StuI, multiplied by lysate. To perform the immunoprecipitation, enzymes were 100.” for “microscope.”
as §6

pDNA-PK S2056 = assay: Western blot of cell-free NHEJ reaction (MCF7 nuclear extract); assay type: biochemical, human
Description: as §5

[5] = tested on: NCI-H1975 and SW1573 cells; assay: Clonogenic assay alone or with etoposide; assay type: cell-based, human; conditions: for combination with 6.8 μM etoposide on colony formation: 10 μM compound, 4 hours; for effect on cell survival, single agent: 4 hours treatment alone
Description: Media were changed every three days. Plates were incubated for a total of about two weeks then fixed and stained using the DIFF QUIK staining kit. Colonies were imaged and counted.

mTOR kinase = mTOR kinase (Homo sapiens, UniProt P42345); assay: mTOR kinase enzyme assay; assay type: biochemical; conditions: average ± SEM
Description: as §1, §2

pATM S1981 = assay: Western blot of cell-free NHEJ reaction (MCF7 nuclear extract); assay type: biochemical, human; conditions: MCF7 nuclear extract with linear dsDNA
Description: as §5

pChk2 T68 = assay: as above; assay type: biochemical, human; conditions: MCF7 nuclear extract, 0.05, 0.5 or 5 μM
Description: as §5

Rad51-foci in LoVo cells = assay: Rad51-foci immunofluorescence (homologous recombination); assay type: cell-based, human
[6] = target: T2, DNA-PKcs, XRCC4 and DNA ligase IV on DNA (Homo sapiens, UniProt P78527); assay: DNA end binding assay (MCF7 nuclear extract); assay type: biochemical; conditions: 5 μM, MCF7 nuclear extract, 10, 30, 60 minutes
T2 construct: endogenous in cells; host or cells: MCF7 nuclear extract
From the text: One kb of DNA fragment, including an EcoRI sequence in the middle, was amplified by PCR using pEGFP as a template and a pair of biotinylated EGFP primers (5′-biotin-[…]-3′ and 5′-biotin-[…]-3′: Valuegene, San Diego, CA). The amplified DNA fragment was cleaved by EcoRI to produce two 0.5 kb biotinylated DNA fragments, and was purified using the QIAquick PCR purification kit (Qiagen). […] An aliquot of the reaction was removed at each time point to separate the supernatant and the beads. The supernatant was subjected to SDS-PAGE and immunoblotting with indicated antibodies. The beads were washed twice with 250 μL of IP buffer (25 mM Hepes-KOH, pH 7.5, 100 mM NaCl, 20% glycerol, 5 mM EDTA, 1 mM DTT, 0.05% Nonidet P-40, 10 mM NaF, and protease inhibitor mixture) and subjected to SDS-PAGE and immunoblotting with indicated antibodies.

ATM = target: T3, ATM (Homo sapiens, UniProt Q13315); set-up: method as in earlier work; conditions: Lit. reported value ref 3; cited from earlier work
T3 construct: made in house; host or cells: HEK293 (293FT cells, Invitrogen R700-07), transient transfection, immunoprecipitation on Protein G Sepharose

ATR [7] = target: T1, ATR; set-up: method as in earlier work; conditions: Lit. reported value ref 3; cited from earlier work
[8] = concentration series (0.05 to 5 μM)

Row | Compound | IC50 (DNA-PK) [µM] | inhibition of NHEJ activity, cell-free (NHEJ activity; [8]) | IC50 (NHEJ in Cal-51 cells) [nM] | IC50 [2] [µM] | IC50 [3] [nM] | IC50 [4] [nM] | inhibition of pDNA-PK S2056, cell-free (pDNA-PK S2056) | combination with 6.8 μM etoposide on colony formation [5] | effect on cell survival, single agent [5] | IC50 (mTOR kinase) [µM] | inhibition of pATM S1981, cell-free (pATM S1981) | inhibition of pChk2 T68, cell-free (pChk2 T68) | other results
1 | CC(C)(O)c1ccc(-c2cnc3c(n2)N(CC2CCOCC2)CC(=O)N3)cn1 [CC214-2, 6-(6-(2-hydroxypropan-2-yl)pyridin-3-yl)-4-((tetrahydro-2H-pyran-4-yl)methyl)-3,4-dihydropyrazino[2,3-b]pyrazin-2(1H)-one] | > 10 | not changed | > 10000 | > 10 | > 10000 | > 10000 | did not inhibit | synergy was not observed | minimal effect on cell survival | – | – | – | IC50 (ATR [1]): > 3 µM
2 | COc1cc([C@@H]2c3cc4c(cc3[C@@H](O[C@@H]3O[C@@H]5CO[C@@H](C)O[C@H]5[C@H](O)[C@H]3O)[C@H]3COC(=O)[C@H]23)OCO4)cc(OC)c1O [etoposide] | – | – | – | – | – | – | – | – | substantially impairs survival | – | – | – | –
3 | O=c1cc(N2CCOCC2)oc2c(-c3cccc4c3sc3ccccc34)cccc12 [NU7441, 8-(4-dibenzothienyl)-2-(4-morpholinyl)-4H-1-benzopyran-4-one] | – | Inhibition of NHEJ was also observed | 2560 ± 840 | 6.22 ± 6.76 | 630 ± 80 | 1030 ± 170 | also inhibited | synergistic effect | minimal effect on cell survival | 1.64 ± 0.2 | reduction | also inhibited | Rad51-foci positive nuclei (HR efficiency) (Rad51-foci in LoVo cells; 5 μM compound with 0.1 μM doxorubicin): 10.3%; DNA-PKcs, XRCC4 and DNA ligase IV bound to DNA over time [6]: retained from 10 minutes through the end of the reaction at 60 minutes; IC50 (ATM): > 100 µM; IC50 (ATR [7]): > 100 µM
4 | O=c1[nH]c2ncc(-c3ccc(-c4nc[nH]n4)cc3)nc2n1CCC1CCOCC1 [CC214-1, 6-(4-(1H-1,2,4-triazol-3-yl)phenyl)-1-(2-(tetrahydro-2H-pyran-4-yl)ethyl)-1,3-dihydro-2H-imidazo[4,5-b]pyrazin-2-one] | 0.141 | – | – | – | – | – | to a smaller extent | – | – | 0.002 ± 0.0002 | – | – | inhibition of NHEJ activity, cell-free (NHEJ activity; 5 μM): Minimal inhibition
5 | O=c1cc(-c2cccc3c2Sc2ccccc2S3)oc(N2CCOCC2)c1 [KU55933, 2-(4-morpholinyl)-6-(1-thianthrenyl)-4H-pyran-4-one] | – | did not inhibit | – | – | – | – | not DNA-PK phosphorylation | – | – | – | efficiently inhibited | concentration-dependent inhibition | –
6 | COc1cccc2c1C(=O)c1c(O)c3c(c(O)c1C2=O)C[C@@](O)(C(=O)CO)C[C@@H]3O[C@H]1C[C@H](N)[C@H](O)[C@H](C)O1 [doxorubicin] | – | – | – | – | – | – | – | – | – | – | – | – | Rad51-foci positive nuclei (HR efficiency) (Rad51-foci in LoVo cells; 0.1 μM doxorubicin only): 24%
